Measured values published in patent US20160058754A1, “Nalmefene for Treatment of Patients with Anxiety Disorder” (H. LUNDBECK A/S, priority 2013, published 2016).

How the values were obtained:
[1] = system: patients with alcohol dependence; assay: Clinical efficacy measured by POMS score (Studies 12014A, 12023A, 12013A); assay type: in vivo, human
Text: The term “POMS” is an abbreviation of “profile of mood states” and refers to a self-report inventory scale developed to assess the effect of e.g. new medication on mood states and mood changes. The scale measures six domains: Tension-Anxiety, Depression-Rejection, Anger-Hostility, Vigour-Activity, Fatigue-Inertia, and Confusion-Bewilderment. A total mood disturbance (TMD) score can be calculated. In general, a lower POMS score indicates a better mood state than a higher score except for vigour-activity, for which a higher POMS score indicates a better mood state. The scale has been described e.g. by McNair et al., Profile of mood states. San Diego, Calif.: Educational and Industrial Testing Service and by Nyenhios and Yamamoto, J. Clin. Psychology, (1999), Vol. 55(1): 79-86.
Assessment of POMs scores in Studies 12014A, 12023A and 12013A was used to evaluate the effect of nalmefene on mood states and mood changes throughout the study. […] Tables 5 and 7 indicate that patients with an anxiety disorder at baseline had higher POMS scores at baseline when compared to those patients without anxiety disorders. The change in POMS scores from baseline are illustrated in FIGS. 3-9. […] A remarkable improvement is seen over the weeks 8-20.
(§1) Another approach to identify patients with an anxiety disorder is by defining Anxiety Disorder at baseline as any ongoing medical history coded by the Medical Dictionary for Regulatory Activities (MedDRA) Preferred Term as ‘Acute Stress Disorder’, ‘Agoraphobia’, ‘Anxiety’, ‘Anxiety Disorder’, ‘Emotional Distress’, ‘Generalised Anxiety Disorder’, ‘Nervousness’, ‘Nosophobia’, ‘Obsessive-Compulsive Disorder’, ‘Panic Attack’, ‘Panic Disorder’, ‘Panic Disorder With Agoraphobia’, ‘Post-Traumatic Stress Disorder’, ‘Social Phobia’ and/or ‘Stress and Tension’. In examples 1 and 2 below patients classified with an anxiety disorder at baseline were selected based on said MedDRA terms.
Assessment of POMs scores in Studies 12014A, 12023A and 12013A was used to evaluate the effect of nalmefene on mood states and mood changes throughout the study. […]

μ receptor = μ receptor (Homo sapiens, UniProt P35372); conditions: in vitro studies; cited from earlier work
δ receptor = δ receptor (Homo sapiens, UniProt P41143); conditions: in vitro studies; cited from earlier work
[2] = system: patients with alcohol dependence; assay: Clinical efficacy on the reduction of alcohol consumption (Studies 12014A, 12023A, 12013A); assay type: in vivo, human
Description: The efficacy of nalmefene in the reduction of alcohol consumption in patients with alcohol dependence (DSM-IV) has been evaluated in studies 12014A, 12023A and 12013A. The efficacy of nalmefene was measured using two co-primary endpoints: the change from baseline in the monthly number of heavy drinking days (HDDs) and the change from baseline in the average daily total alcohol consumption (TAC).
as §1
The efficacy of nalmefene on the reduction of alcohol consumption in patients with alcohol dependence (DSM-IV) was evaluated in two efficacy studies (Study 12014A and Study 12023A) and a safety study (Study 12013A). All studies were multi-national, multi-site, randomised, double blind, two parallel group, placebo controlled studies. The efficacy was evaluated over 24 weeks of treatment. The studies included outpatients, aged ≧18 years, with a primary diagnosis of alcohol dependence. […] Patients with psychiatric co-morbidity (that is, patients who used stable doses of antipsychotics and/or certain antidepressants) were also included unless the treatment of the psychiatric comorbidity had to take priority over treatment of the drinking problem, or was likely to interfere with study treatment or impairs treatment compliance.
The studies included in total 1997 patients, 1173 of whom were treated with nalmefene 18 mg in an as-needed dosing regimen. A motivational and adherence enhancing intervention was administered to all the patients to support the patients in changing their behavior and to enhance adherence to treatment.
The efficacy of nalmefene on the reduction of alcohol consumption was measured using two co-primary endpoints: the change in the monthly number of heavy drinking days (HDDs) and the change in the average daily total alcohol consumption (TAC). A HDD was defined as a day with a consumption ≧60 g alcohol for men and ≧40 g for women.

[3] = system: patients with alcohol dependence; assay: Clinical efficacy measured by SF-36 Mental Component Summary (FAS, OC); assay type: in vivo, human; conditions: for SF-36 Mental Component Summary, Change to Week 12, Mean ± SE / SF-36 Mental Component Summary, Change to Week 24, Mean ± SE: pooled studies, FAS, OC
Text: Another method for measuring a patient's health status is by the SF-36 which is a patient-reported outcome developed as a general measure of perceived health status. The mental component summary score focuses on mental aspects of health related quality of life. Higher scores correspond to better health status or well-being.

Mice (NMRI) = assay: Marble burying test in mouse; assay type: in vivo; conditions: 0.01 or 1 mg/kg s.c.
Description: The method, which detects anxiolytic/tranquillizing activity, follows that described by Broekkamp et al (Eur. J. Pharmacol., 126, 223-229, 1986). Mice exposed to novel objects (marbles) will bury them in the sawdust floor covering. Anxiolytics decrease the number of marbles buried at non-sedative doses.
Nalmefene was tested in the marble burying model as the sole active compound. Mice (NMRI) were individually placed in transparent plastic cages (33×21×18 cm) with 5 cm of sawdust on the floor and 25 marbles grouped in the centre of the cage. The cage was covered with an inverted plastic cage. Each test cage, together with the marbles, was impregnated with mouse odor before-hand by leaving 10 mice in the cage for 15 minutes. These mice then played no further role in the experiment.
The number of marbles covered by sawdust (⅔ or more) was counted at the end of a 30 minute test. 12 mice were studied per group. The test was performed blind. Nalmefene was evaluated at 3 doses (0.01, 0.1 and 1 mg/kg), administered s.c. 30 minutes before the test, and compared with a vehicle control group. […]
Data with the test substance were analysed by comparing treated groups with vehicle control using Kruskall-Wallis test followed by Mann-Whitney U tests. Data with the reference substance were analysed using Mann-Whitney U tests. […]

κ receptor = κ receptor (Homo sapiens, UniProt P41145); conditions: in vitro studies; cited from earlier work
rats [4] = assay: Elevated plus maze test in rats; assay type: in vivo, rat; conditions: 0.01, 0.1 and 1 mg/kg s.c. 30 minutes before the test; 5 minutes; vs vehicle
Text: Rats have an aversion of open spaces and avoid them by confining movements to enclosed spaces or to the edges of a bounded space. Anxiolytic activity can be tested in a test setting consists of a plus-shaped apparatus with two open and two enclosed arms, each with an open roof, elevated 40-70 cm from the floor according to Pellow et al., J. Neurosci. Methods. (1985) August; 14(3):149-67. Pretreatment of rats with anxiolytic active compounds will increase in the proportion of time spent in the open arms (time in open arms/total time in open or closed arms), and an increase in the proportion of entries into the open arms (entries into open arms/total entries into open or closed arms). Total number of arm entries and number of closed-arm entries can be employed as measures of general activity.
Nalmefene was tested as the sole active compound in the elevated plus maze test in rats. A rat was placed in the centre of the plus-maze and left to explore for 5 minutes. The number of entries into the open and closed arms and the time spent on the open arms were recorded. The % of open arm entries (open arm entries/total arm entries×100) was calculated. Nalmefene was evaluated at 3 doses (0.01, 0.1 and 1 mg/kg), administered s.c. 30 minutes before the test, and compared with a vehicle control group.

rats [5] = assay: Vogel test in rats; assay type: in vivo, rat; conditions: 0.01, 0.1 and 1 mg/kg s.c. 30 minutes before the test; 3-minute test; vs vehicle
Text: Pairing of water drinking with […] shock punishment will induce a conflict in water deprived rats and lead to less frequent water seeking behaviour. Pretreatment of rats with an anxiolytic will counteract the conflict and increase the frequency of water seeking. The test can be conducted as described in detail by Vogel et al., Psychopharmacology, (1971), 21: pp. 1-7. In brief, rats are adapted to the test chambers, a Plexiglas box, equipped with a grid floor made of stainless steel bars and a drinking bottle with tap water. After the adaptation period, the animals are deprived of water and then placed in the test chamber for free access to the drinking bottle for a short period. Afterwards, they are allowed a short free-drinking session in their home cage. After another water deprivation period, the rats are placed again in the test chamber and allowed to drink for a very short time (30 s); immediately afterwards, their drinking attempts are punished with an electric shock. […] The number of shocks accepted throughout a 5-min experimental session was recorded.
Nalmefene was tested as the sole active compound in the Vogel model in rats. […] The number of punished drinks was counted during a 3-minute test. Nalmefene was evaluated at 3 doses (0.01, 0.1 and 1 mg/kg), administered s.c. 30 minutes before the test, and compared with a vehicle control group.

[6] = total patient group, nalmefene 18 mg as-needed vs placebo
[7] = no anxiety disorder at baseline

δ receptor, sequence (P41143 whole entry): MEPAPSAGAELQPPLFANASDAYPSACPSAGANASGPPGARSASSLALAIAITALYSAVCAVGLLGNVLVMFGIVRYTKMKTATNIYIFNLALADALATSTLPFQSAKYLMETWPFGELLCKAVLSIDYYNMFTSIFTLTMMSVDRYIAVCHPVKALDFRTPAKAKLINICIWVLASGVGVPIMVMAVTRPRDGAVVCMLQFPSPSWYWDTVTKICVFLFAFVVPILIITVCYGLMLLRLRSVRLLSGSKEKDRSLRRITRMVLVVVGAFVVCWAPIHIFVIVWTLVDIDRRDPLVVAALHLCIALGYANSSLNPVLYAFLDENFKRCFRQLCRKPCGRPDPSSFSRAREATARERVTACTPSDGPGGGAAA
μ receptor, sequence (P35372 whole entry): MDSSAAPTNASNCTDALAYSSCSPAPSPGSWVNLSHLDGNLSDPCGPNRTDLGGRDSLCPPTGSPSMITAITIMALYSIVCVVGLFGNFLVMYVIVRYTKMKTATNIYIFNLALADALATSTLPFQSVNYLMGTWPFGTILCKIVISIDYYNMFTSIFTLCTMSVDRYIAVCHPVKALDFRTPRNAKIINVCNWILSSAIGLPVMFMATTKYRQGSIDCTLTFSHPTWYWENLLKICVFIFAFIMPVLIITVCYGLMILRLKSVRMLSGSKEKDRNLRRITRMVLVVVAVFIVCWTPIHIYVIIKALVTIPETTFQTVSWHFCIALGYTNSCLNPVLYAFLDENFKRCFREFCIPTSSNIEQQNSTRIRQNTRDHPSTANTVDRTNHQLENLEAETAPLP
κ receptor, sequence (P41145 whole entry): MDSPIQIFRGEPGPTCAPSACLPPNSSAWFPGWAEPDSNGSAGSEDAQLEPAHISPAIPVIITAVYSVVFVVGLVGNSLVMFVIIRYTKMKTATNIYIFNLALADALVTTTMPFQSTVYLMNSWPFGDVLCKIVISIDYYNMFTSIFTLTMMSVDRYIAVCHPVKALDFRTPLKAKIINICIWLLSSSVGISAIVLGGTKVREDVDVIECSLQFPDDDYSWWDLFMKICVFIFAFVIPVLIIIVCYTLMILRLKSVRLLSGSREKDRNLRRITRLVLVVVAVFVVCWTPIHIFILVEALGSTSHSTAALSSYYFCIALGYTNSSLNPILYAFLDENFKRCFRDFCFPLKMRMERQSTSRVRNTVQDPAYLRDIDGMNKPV

In the case of `C=C1CC[C@@]2(O)[C@H]3Cc4ccc(O)c5c4[C@@]2(CCN3CC2CC2)[C@H]1O5` [Nalmefene, 17-(cyclopropylmethyl)-4,5-alpha-epoxy-6-methylenemorphinan-3,14-diol], the “POMS score, nalmefene vs placebo” value ([1]; patients with an anxiety disorder at baseline, end of the study) is reported as “better POMS score”, the “POMS total mood disturbance, tension-anxiety, depression-rejection, anger-hostility and confusion, nalmefene vs placebo” value ([1]; patients with an anxiety disorder at baseline, weeks 4-24) is reported as “better POMS scores” and the “POMS score, nalmefene vs placebo” value ([1]; patients without an anxiety disorder at baseline, throughout the study) is reported as “no pronounced difference between nalmefene and placebo”. The “activity at the μ receptor” value (μ receptor) was “antagonist activity”, the “activity at the δ receptor” value (δ receptor) was “antagonist activity” and the alcohol consumption ([2]; patients with an anxiety disorder at baseline) was “significally reduced”. For the same compound, the “reducing TAC (change from baseline in average daily total alcohol consumption)” value [2, 6] was “superior to placebo”, the “reducing the number of HDDs (change from baseline in monthly number of heavy drinking days)” value [2, 6] was “superior to placebo” and the “difference between nalmefene and placebo measured in HDDs and TAC” value ([2]; week 24, patients with an anxiety disorder at baseline compared with patients without) was “merely at the same level”. For the same compound, the “difference between nalmefene and placebo in the change from baseline in SF-36 mental component summary score” value ([3]; Week 12 and Week 24, patients with an anxiety disorder at baseline compared with patients without) was “more pronounced”, the “SF-36 Mental Component Summary, Change to Week 12, Mean ± SE” value ([3]; anxiety disorder at baseline) was 6.23 ± 1.47 and the “SF-36 Mental Component Summary, Change to Week 24, Mean ± SE” value ([3]; anxiety disorder at baseline) was 7.56 ± 2.24. The “SF-36 Mental Component Summary, Change to Week 12, Mean ± SE” value [3, 7] was 4.77 ± 0.37, the “SF-36 Mental Component Summary, Change to Week 24, Mean ± SE” value [3, 7] was 5.65 ± 0.43 and the “effect on number of marbles covered by sawdust compared with vehicle controls” value (Mice (NMRI)) was “no significant effects”. For the same compound, the “activity at the κ receptor” value (κ receptor) was “partial agonist activity”, the “open and closed arm entries, time spent on the open arms, % of open arm entries” value (rats [4]) was “No significant effect” and the “number of punished drinks” value (rats [5]) was “No significant effect”.
